{
  "source": "patent US5362729A",
  "about": "“Dihydropyridine derivatives useful in antitumor therapy” (Farmitalia Carlo ERBA S.r.l., priority 1991, dated 1994)",
  "key": {"[1]": {"test": "orientative acute toxicity after single oral administration to mice", "conditions": "mouse, in vivo, assessed on the seventh day", "experimental": "Mice which had been deprived of food for nine hours were treated orally with single administrations of increasing doses of compounds of the invention, then housed and normally fed. For example the orientative acut toxicity (LD50) of the compound FCE 24265, assessed on the seventh day after treatment, was higher than 800 mg/kg. In view of their low toxicity the compounds of the invention can be safely used in medicine."}, "LoVo/DX cells": {"test_system": "LoVo/DX cells", "test": "single-cell plating technique, colony-inhibiting efficacy of Doxorubicin alone or in combination on Doxorubicin-resistant cells", "type": "cell-based, human", "experimental": "(§1) LoVo and LoVo/DX cells (human colon adenocarcinoma cell lines sensitive and resistant to Doxorubicin, respectively) were maintained at 37° C. in a humidified atmosphere of 5% CO2. Culture medium was Ham's F12 supplemented with 10% foetal calf serum, 1% vitamins (BME vitamin solution 100 X), and 1% glutamine (200 mM). Both cell lines were passaged twice weekly.\n(§2) Doxorubicin, from Farmitalia Carlo erba, was dissolved in sterile water, and the concentrations were checked spectro-photometrically. Solutions of the compounds of the invention using ethanol were prepared immediately before use.\n(§3) A single-cell plating technique was utilized for measuring the colony-inhibiting efficacy of drugs alone or drug combinations.\n(§4) Exponentially growing LoVo and LoVo/DX cells were adjusted to the concentration of 300 cells.ml^-1 and seeded in 36mm Petri dishes (2 ml/dish).\n(§5) After 48h incubation, medium was withdrawn and solutions of invention compounds alone, or Doxorubicin alone or solutions of the combination of both compounds, were added. […]\n(§6) Survival was determined as the percentage of colonies in treated samples vs untreated ones. For combination of the compounds of the invention and doxorubicin, survival was calculated using as controls the number of colonies in samples treated with compounds of the invention alone."}, "LoVo cells": {"test_system": "LoVo cells", "test": "single-cell plating technique, colony-inhibiting efficacy of Doxorubicin alone or in combination on Doxorubicin-sensitive cells", "type": "cell-based, human", "conditions": "Doxorubicin alone", "experimental": "as §1, §2, §3, §4, §5, §6"}},
  "note": "Read-outs that look alike come from different tables or passages of the source.",
  "data": [
    {"smiles": "CCOC(=O)C1=C(C)NC(C)=C(C(=O)OCC)C1c1cccc(-n2ccnc2)c1", "note": "[FCE 24265, 1,4-Dihydro-2,6-dimethyl-4-[3-(1H-imidazol-1-yl)phenyl]-3,5-pyridinedicarboxylic acid, diethyl ester]", "values": [
      {"measurement": "LD50 at 168 h", "setting": "[1]", "value": "> 800", "unit": "mg/kg"}
    ]},
    {"smiles": "COc1cccc2c1C(=O)c1c(O)c3c(c(O)c1C2=O)C[C@@](O)(C(=O)CO)C[C@@H]3O[C@H]1C[C@H](N)[C@H](O)[C@H](C)O1", "note": "[Doxorubicin]", "values": [
      {"measurement": "R.I. (Resistance Index)", "setting": "LoVo/DX cells; Doxorubicin alone, LoVo/DX vs LoVo cells, 240 min", "value": 49.1},
      {"measurement": "IC50", "setting": "LoVo/DX cells; Homo sapiens, LoVo/DX, 4 h, read-out: IC50 = Concentration inhibiting 50% of colony formation", "value": 4.91, "unit": "µg/mL"},
      {"measurement": "IC50", "setting": "LoVo cells", "value": 0.1, "unit": "µg/mL"},
      {"measurement": "IC50", "setting": "LoVo cells; Homo sapiens, LoVo, read-out: IC50", "value": "~0.1", "unit": "µg/mL"}
    ]}
  ]
}
